Measurements reported in patent US20250084453A1, “SYSTEMS, COMPOSITIONS AND METHODS FOR IDENTIFYING E3 LIGASE SUBSTRATES BY UBIQUITIN BIOTINYLATION” (The Broad Institute, Inc., priority 2022, published 2025).
pIC50: −log10 of the molar value. Blank lines part the entries; values can stand above or below the compound they belong to.

What was measured:
[1] = biological target: T1, VHL E3 ligase (UniProt P06709+P40337); assay: Ubiquitin biotinylation MS profiling of BET/PTK2 degraders in VHL-BirA cells; type: cell-based, human; conditions: A3-HA-Ub, 1 μM, 1 hour, FIG. 10
T1 construct: expressed in transfected cells
Protocol: (§1) Enrichment of biotinylated species by streptavidin-coated beads, protein digestion, and protein identification and quantification by mass spectrometry were performed exactly as described in Examples 3 and 4. Triplicate samples allowed for statistical analysis of differentially enriched proteins, represented by log 2-fold-change (FC) between the PROTAC®-treated group and the DMSO-treated group on the x-axis, and significance (p-value estimated by limma) on the y-axis in the figures.

[2] = system: CRBN E3 ligase; assay: Ubiquitin biotinylation MS profiling of BET/PTK2 degraders in CRBN-BirA cells; type: cell-based, human; conditions: A3-HA-Ub, 1 μM, 1 hour, FIG. 10
Protocol: as §1

[3] = biological target: PTK2 (Homo sapiens, UniProt Q05397); conditions: cited from earlier work
[4] = system: CRBN E3 ligase; assay: Ubiquitin biotinylation MS profiling of multikinase PROTACs in HEK293T CRBN-/- CRBN-BirA cells; type: cell-based, human; conditions: A3-HA-Ub; PROTAC 1 μM, 45 minutes after carfilzomib; FIGS. 13A-13D
Source text: In this example, PROTAC® (proteolysis-targeting chimera) molecules that target kinases were created by linking certain kinase degraders with IMiDs analogs. (FIG. 12). PROTAC®s recruit a target protein to be in proximity to an E3 ubiquitin ligase to trigger protein degradation. The ubiquitinated targets of four CRBN-recruiting multi-kinase PROTAC®s were generated to contain the following multikinase degraders: SK-3-91, DB0646, SB1-G-187 and WH-10417-099. These four degraders can collectively induce degradation of a large number of distinct kinases (>125 distinct kinases). FIGS. 13A-13D show the results of a mass spectrometry experiment in which protein substrates susceptible to induced ubiquitination by the abovementioned four multikinase degraders were identified, respectively. These experiments were performed in HEK293T^CRBN−/− cells lentivirally engineered to express CRBN-BirA and transiently expressing A3-HA-Ub. While cultured in biotin-free medium, the cells were pre-treated with carfilzomib (carf; 0.4 μM) for 1 hour, and then were either treated or untreated with the kinase-targeting PROTAC®s (1 μM) for another 45 minutes. […] Enrichment of biotinylated species by streptavidin-coated beads, protein digestion, and protein identification and quantification by mass spectrometry were performed exactly as described in Example 3 and 4. Triplicate samples allowed for statistical analysis of differentially enriched proteins, represented by log 2-fold-change (FC) between the PROTAC®-treated group and the DMSO-treated group on the x-axis, and significance (p-value estimated by limma) on the y-axis in the figures. FIGS. 13A-13D present the induced ubiquitinated substrates for SK-3-91, DB0646, SB1-G-187 and WH-10417-099, respectively, shown and labeled in the upper right quadrant of the plot.

[5] = biological target: T2, DCAF15 E3 ubiquitin ligase (UniProt P06709+Q14498+Q66K64); assay: Ubiquitin biotinylation MS profiling of molecular glue in HEK293T DCAF15-BirA cells; type: cell-based, human; conditions: A3-HA-Ub, 10 μM, 1 hour, FIG. 11
T2 construct: expressed in transfected cells
Protocol: The protocol used in this experiment is the same as that described in Example 6 above, except that the system was evaluated in a HEK293T cell line lentivirally engineered to express DCAF15-BirA and transiently expressing A3-HA-Ub. While cultured in biotin-free medium, the cells were pre-treated with carfilzomib (carf; 0.4 μM) for 1 hour, and then were either treated or untreated with E7820 (10 μM) for another hour. […] Enrichment of biotinylated species by streptavidin-coated beads, protein digestion, and protein identification and quantification by mass spectrometry were performed exactly as described in Examples 3 and 4. Triplicate samples allowed for statistical analysis of differentially enriched proteins, represented by log 2-fold-change (FC) between the E7820-treated group and the DMSO-treated group on the x-axis, and significance (p-value estimated by limma) on the y-axis in the figures. […] Consistent with the expected action of the E7820 glue in the system, the induced ubiquitinated protein RBM39/CAPERα was detected as the target of the E7820 sulfonamide, based on binding activity or protein degradation.

[6] = biological target: T1, VHL E3 ligase; assay: Ubiquitin biotinylation MS with VHL inhibitor in A375 cells expressing VHL-BirA; type: cell-based, human; conditions: MLN4924 pre-treatment and washout, VH298 30 minutes, FIG. 18
Protocol: Experiments were conducted using the methods and systems described herein in conjunction with an inhibitor of an E3 ligase utilized in the experiment. […] The experiments were performed in A375 cells that transiently expressed A3-HA-Ub and VHL-BirA. While cultured in biotin-free medium, the cells were pre-treated with MLN4924 (1 μM) for 2 hours. Thereafter, MLN4924 was washed out of the cell culture with one PBS wash and was replaced with biotin-free medium.
Next, the cells were lysed and kept on ice to terminate the reaction. Enrichment of biotinylated species by streptavidin-coated beads, protein digestion, and protein identification and quantification by mass spectrometry were performed exactly as described in Examples 3 and 4. The samples were analyzed in triplicate to allow for statistical analysis of differentially enriched proteins, represented by log 2-fold-change between the VH298-treated E3 ligase group and the wild-type E3 ligase group on the y-axis, and significance (p-value estimated by limma) on the x-axis in the figures. […] A decrease in biotinylation owing to the inhibitor treatment was observed. Consistent with the expected actions of VHL, HIF1A was identified as a substrate.

[7] = system: CRBN E3 ligase; assay: Ubiquitin biotinylation MS profiling of HDAC degrader in 293T CRBN-/- CRBN-BirA cells; type: cell-based, human; conditions: CRBN-BirA, A3-HA-Ub; 1 μM, 45 minutes; FIG. 14A
Protocol: as §1, with “The experiments involving CRBN E3 ligase were performed in HEK293T^CRBN−/− cells lentivirally engineered to express CRBN-BirA and transiently expressing A3-HA-Ub. The HDAC degrader XY-07-097 was used in the experiments using the CRBN E3 ligase. The experiments involving VHL E3 ligase were performed in HEK293T cells lentivirally engineered to express VHL-BirA and transiently expressing A3-HA-Ub. The HDAC degrader XY-07-187 was used in the experiments using the VHL E3 ligase. […] Enrichment” for “Enrichment”, “Example” for “Examples”
(§2) Desalted peptides were dried in a vacuum-centrifuged and reconstituted in 0.1% formic acid for LC-MS analysis. Data were collected using a TimsTOF Pro2 (Bruker Daltonics, Bremen, Germany) coupled to a nanoElute LC pump (Bruker Daltonics, Bremen, Germany) via a CaptiveSpray nano-electrospray source. […]

[8] = biological target: T1, VHL E3 ligase; assay: Ubiquitin biotinylation MS profiling of HDAC degrader in 293T VHL-BirA cells; type: cell-based, human; conditions: A3-HA-Ub, 1 μM, 45 minutes, FIG. 14B
Protocol: as §1, with “The experiments involving CRBN E3 ligase were performed in HEK293T^CRBN−/− cells lentivirally engineered to express CRBN-BirA and transiently expressing A3-HA-Ub. The HDAC degrader XY-07-097 was used in the experiments using the CRBN E3 ligase. The experiments involving VHL E3 ligase were performed in HEK293T cells lentivirally engineered to express VHL-BirA and transiently expressing A3-HA-Ub. The HDAC degrader XY-07-187 was used in the experiments using the VHL E3 ligase. […] Enrichment” for “Enrichment”, “Example” for “Examples”
as §2

[9] = system: GSPT1; assay: GSPT1 degradation by Western blot in HEK293T cells and CRBN-/- derivatives; type: cell-based, human; conditions: carfilzomib 0.4 μM 1 hour before CC-885 1 μM
Protocol: However, instead of assessing transiently-expressed V5-tagged IKZF1, an endogenous neo-substrate of CRBN, namely, GSPT1, was assessed. […] Following incubation with the components and added agents, the cells were lysed, and streptavidin-coated beads were used to capture from the cell lysate biotinylated, ubiquitinated proteins, e.g., the endogenous GSPT1 substrate. The biotinylated proteins eluted from the beads were subjected to Western blot analyses.

[10] = system: BET bromodomains; conditions: degrader of BET bromodomains; cited from earlier work
[11] = biological target: T3, V5-IKZF1 (Homo sapiens, UniProt Q13422+Q96SW2); assay: Streptavidin pulldown and Western blot of biotinylated ubiquitinated V5-IKZF1 in 293T CRBN-/- CRBN-BirA cells; type: cell-based
T3 construct: expressed in transfected cells; host or cells: 293T CRBN-/- cells stably expressing CRBN-BirA; pRK5 vector, transient

[12] = biological target: T4, BirA (Escherichia coli, UniProt P06709); conditions: cited from earlier work
[13] = biological target: T4, BirA

T3 sequence (Q13422 whole entry): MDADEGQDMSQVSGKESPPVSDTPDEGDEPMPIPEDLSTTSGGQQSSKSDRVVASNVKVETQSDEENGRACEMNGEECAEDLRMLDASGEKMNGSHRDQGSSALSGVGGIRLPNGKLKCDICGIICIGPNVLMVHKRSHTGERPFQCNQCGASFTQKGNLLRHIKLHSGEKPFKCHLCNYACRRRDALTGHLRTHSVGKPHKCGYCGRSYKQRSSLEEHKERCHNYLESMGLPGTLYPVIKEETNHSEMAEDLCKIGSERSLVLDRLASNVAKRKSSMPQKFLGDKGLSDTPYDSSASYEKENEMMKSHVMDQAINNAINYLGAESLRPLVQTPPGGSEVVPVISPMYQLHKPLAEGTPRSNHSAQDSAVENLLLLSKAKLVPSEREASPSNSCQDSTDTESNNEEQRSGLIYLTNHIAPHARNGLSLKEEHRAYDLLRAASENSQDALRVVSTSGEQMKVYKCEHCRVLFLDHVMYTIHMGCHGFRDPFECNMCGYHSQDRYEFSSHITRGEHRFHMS
T3 sequence (Q96SW2 whole entry): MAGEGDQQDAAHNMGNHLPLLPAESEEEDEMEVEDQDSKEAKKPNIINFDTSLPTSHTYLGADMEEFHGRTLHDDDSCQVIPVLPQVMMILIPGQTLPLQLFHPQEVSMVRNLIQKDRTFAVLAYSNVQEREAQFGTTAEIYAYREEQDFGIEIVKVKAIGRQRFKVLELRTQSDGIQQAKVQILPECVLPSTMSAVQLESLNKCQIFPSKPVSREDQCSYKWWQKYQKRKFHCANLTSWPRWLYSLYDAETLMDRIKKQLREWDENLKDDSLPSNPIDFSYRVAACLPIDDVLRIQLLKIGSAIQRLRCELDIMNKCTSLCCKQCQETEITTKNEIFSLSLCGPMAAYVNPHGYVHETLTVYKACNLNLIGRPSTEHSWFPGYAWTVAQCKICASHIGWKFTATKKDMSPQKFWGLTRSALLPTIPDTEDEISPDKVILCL
T4 sequence (P06709 whole entry): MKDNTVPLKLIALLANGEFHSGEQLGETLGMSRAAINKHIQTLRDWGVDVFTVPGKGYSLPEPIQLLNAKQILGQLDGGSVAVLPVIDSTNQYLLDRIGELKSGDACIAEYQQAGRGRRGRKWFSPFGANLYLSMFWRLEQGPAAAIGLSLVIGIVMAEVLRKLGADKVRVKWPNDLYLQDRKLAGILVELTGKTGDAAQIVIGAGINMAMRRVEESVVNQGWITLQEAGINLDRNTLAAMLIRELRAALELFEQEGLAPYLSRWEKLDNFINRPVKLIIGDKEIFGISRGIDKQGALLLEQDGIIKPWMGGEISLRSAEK
T1 sequence (P40337+P06709 fused): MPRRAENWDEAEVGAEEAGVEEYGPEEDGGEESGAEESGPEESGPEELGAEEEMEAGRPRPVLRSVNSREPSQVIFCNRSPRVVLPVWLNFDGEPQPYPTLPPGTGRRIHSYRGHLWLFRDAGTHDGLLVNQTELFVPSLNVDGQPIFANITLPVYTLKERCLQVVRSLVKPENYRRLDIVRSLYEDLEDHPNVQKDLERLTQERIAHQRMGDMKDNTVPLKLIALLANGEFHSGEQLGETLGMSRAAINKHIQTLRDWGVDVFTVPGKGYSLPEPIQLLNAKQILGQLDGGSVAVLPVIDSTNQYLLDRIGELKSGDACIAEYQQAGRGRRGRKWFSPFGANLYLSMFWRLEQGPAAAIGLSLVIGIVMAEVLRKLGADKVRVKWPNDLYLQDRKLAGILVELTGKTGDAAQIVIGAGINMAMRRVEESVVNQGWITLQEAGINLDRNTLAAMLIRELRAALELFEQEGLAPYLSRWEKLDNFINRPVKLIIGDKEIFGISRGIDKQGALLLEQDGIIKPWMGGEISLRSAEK
T1 sequence (Q15369 whole entry, further chain): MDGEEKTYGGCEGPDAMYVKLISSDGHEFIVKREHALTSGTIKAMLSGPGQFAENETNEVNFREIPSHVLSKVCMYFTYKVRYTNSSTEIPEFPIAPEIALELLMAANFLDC
T1 sequence (Q15370 whole entry, further chain): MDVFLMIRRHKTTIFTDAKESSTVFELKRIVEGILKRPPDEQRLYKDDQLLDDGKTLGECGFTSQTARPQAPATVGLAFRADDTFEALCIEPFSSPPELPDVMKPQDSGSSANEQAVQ
T2 sequence (Q14498 whole entry): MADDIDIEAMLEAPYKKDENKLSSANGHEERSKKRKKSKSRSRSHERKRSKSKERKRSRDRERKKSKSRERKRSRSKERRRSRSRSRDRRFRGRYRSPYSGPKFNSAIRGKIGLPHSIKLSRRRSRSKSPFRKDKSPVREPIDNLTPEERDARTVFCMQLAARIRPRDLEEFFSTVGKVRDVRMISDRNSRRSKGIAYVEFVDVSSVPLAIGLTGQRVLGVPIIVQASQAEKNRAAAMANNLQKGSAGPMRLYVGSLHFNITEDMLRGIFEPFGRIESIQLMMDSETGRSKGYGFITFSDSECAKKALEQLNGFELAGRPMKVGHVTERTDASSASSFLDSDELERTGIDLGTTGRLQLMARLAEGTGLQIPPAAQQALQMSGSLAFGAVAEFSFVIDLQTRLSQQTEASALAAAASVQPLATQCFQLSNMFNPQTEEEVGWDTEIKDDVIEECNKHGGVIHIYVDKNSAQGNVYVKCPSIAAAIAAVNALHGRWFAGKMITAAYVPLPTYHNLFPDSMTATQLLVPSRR
T2 sequence (Q16531 whole entry, further chain): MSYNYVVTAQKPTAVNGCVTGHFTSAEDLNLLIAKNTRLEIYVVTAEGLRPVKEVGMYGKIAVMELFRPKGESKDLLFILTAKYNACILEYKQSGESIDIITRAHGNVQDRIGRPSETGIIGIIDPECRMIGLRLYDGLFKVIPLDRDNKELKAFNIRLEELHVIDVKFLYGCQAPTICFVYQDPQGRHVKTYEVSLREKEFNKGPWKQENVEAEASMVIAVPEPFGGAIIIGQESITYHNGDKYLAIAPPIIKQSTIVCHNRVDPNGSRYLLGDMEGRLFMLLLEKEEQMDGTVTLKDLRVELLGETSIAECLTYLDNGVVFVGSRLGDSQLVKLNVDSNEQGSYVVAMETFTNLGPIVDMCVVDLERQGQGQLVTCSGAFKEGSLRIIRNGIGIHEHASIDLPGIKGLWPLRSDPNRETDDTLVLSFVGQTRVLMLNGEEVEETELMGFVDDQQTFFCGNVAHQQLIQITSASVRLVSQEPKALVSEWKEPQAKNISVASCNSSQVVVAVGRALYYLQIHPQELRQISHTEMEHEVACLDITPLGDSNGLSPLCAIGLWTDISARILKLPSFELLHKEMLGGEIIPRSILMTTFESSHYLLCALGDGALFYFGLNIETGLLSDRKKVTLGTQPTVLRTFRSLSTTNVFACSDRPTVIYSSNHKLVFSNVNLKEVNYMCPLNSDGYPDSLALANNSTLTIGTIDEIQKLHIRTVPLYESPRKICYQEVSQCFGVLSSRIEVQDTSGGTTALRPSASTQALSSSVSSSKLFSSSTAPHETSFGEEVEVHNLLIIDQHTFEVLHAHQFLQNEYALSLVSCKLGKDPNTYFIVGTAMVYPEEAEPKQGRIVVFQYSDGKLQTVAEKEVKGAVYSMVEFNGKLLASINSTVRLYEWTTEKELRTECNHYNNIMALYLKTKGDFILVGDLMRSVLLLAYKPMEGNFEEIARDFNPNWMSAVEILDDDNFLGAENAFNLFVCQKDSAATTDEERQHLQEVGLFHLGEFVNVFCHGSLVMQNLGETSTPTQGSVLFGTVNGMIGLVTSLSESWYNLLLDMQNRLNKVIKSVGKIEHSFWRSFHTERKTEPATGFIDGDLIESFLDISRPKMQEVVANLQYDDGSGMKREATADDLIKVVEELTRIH
T2 sequence (Q66K64+P06709 fused): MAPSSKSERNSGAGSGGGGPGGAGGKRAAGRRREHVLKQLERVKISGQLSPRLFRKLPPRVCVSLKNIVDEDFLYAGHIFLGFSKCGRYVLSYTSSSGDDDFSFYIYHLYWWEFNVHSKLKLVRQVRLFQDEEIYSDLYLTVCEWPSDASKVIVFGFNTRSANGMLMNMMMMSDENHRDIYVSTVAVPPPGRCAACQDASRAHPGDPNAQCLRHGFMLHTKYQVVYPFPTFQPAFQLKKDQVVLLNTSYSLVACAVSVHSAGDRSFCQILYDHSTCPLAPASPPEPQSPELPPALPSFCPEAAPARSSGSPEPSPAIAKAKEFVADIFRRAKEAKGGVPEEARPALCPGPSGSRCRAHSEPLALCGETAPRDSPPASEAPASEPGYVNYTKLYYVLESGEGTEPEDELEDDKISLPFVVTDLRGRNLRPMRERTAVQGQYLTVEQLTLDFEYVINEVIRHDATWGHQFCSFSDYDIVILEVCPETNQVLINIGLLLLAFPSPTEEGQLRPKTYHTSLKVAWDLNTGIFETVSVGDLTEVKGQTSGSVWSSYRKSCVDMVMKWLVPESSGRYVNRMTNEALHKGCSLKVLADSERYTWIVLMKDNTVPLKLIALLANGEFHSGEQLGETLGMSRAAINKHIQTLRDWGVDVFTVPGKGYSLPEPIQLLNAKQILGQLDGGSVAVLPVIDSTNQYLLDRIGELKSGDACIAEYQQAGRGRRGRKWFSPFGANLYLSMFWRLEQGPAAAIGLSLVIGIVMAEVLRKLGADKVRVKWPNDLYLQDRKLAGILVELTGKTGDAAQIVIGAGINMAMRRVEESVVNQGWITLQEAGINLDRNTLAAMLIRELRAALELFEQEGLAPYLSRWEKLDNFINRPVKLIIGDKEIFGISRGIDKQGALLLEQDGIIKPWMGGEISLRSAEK

Compound: Cc1ncsc1-c1ccc([C@H](C)NC(=O)[C@@H]2C[C@@H](O)CN2C(=O)[C@@H](NC(=O)COCCCOCCNC(=O)C[C@@H]2N=C(c3ccc(Cl)cc3)c3c(sc(C)c3C)-n3c(C)nnc32)C(C)(C)C)cc1 [ARV-771]
Induced ubiquitinated substrates versus DMSO [1]: BRD2, BRD3, BRD4

Compound: COc1cc(C(=O)NCCOCCOCCOCC(=O)N[C@H](C(=O)N2C[C@H](O)C[C@H]2C(=O)NCc2ccc(-c3scnc3C)cc2)C(C)(C)C)ccc1Nc1ncc(C(F)(F)F)c(Oc2cccc3c2C(=O)CC3)n1 [BI-0319]
Induced ubiquitinated substrates versus DMSO [1]: PTK2

Compound: COc1cc(C(=O)NCCOCCOCCOCCC(=O)Nc2cccc3c2C(=O)N(C2CCC(=O)NC2=O)C3=O)ccc1Nc1ncc(C(F)(F)F)c(Oc2cccc3c2C(=O)CC3)n1 (centres unmarked) [BI-3663]
Induced ubiquitinated substrates versus DMSO [2]: PTK2 | pIC50 [3]: 7.74

Compound: Cc1ccc(NC(=O)c2cccc(C(F)(F)F)c2)cc1N1Cc2cnc(Nc3ccc(N4CCN(Cc5cn(CCCCCOc6cccc7c6C(=O)N(C6CCC(=O)NC6=O)C7=O)nn5)CC4)nc3)nc2N(C)C1=O (centres unmarked) [DB0646]
Induced ubiquitinated proteins versus DMSO [4]: the majority of the induced ubiquitinated proteins detected were kinase targets

Compound: Cc1ccc(NS(=O)(=O)c2cccc(C#N)c2)c2[nH]cc(C#N)c12 [E7820]
Induced ubiquitinated substrate versus DMSO [5]: RBM39/CAPERα

Compound: Cc1ccc(C(=O)Nc2ccc(CN3CCN(CCCOCCOCCOCCNC(=O)COc4cccc5c4C(=O)N(C4CCC(=O)NC4=O)C5=O)CC3)c(C(F)(F)F)c2)cc1C#Cc1cnc2cccnn12 (centres unmarked) [SB1-G-187]
Induced ubiquitinated proteins versus DMSO [4]: the majority of the induced ubiquitinated proteins detected were kinase targets

Compound: CC(C)S(=O)(=O)c1ccccc1Nc1nc(Nc2ccc(N3CCN(CCOCCNC(=O)CNc4cccc5c4C(=O)N(C4CCC(=O)NC4=O)C5=O)CC3)cc2)ncc1Cl (centres unmarked) [SK-3-91]
Induced ubiquitinated proteins versus DMSO [4]: the majority of the induced ubiquitinated proteins detected were kinase targets

Compound: Cc1ncsc1-c1ccc(CNC(=O)[C@@H]2C[C@@H](O)CN2C(=O)[C@@H](NC(=O)C2(C#N)CC2)C(C)(C)C)cc1 [VH298]
VHL substrate revealed by decrease in biotinylation owing to the inhibitor treatment [6]: HIF1A

Compound: O=C(/C=C/c1ccc(CN(CCCCCNc2cccc3c2C(=O)N(C2CCC(=O)NC2=O)C3=O)CCc2c[nH]c3ccccc23)cc1)NO (centres unmarked) [XY-07-097]
Induced ubiquitinated HDAC substrates versus DMSO [7]: HDAC2, HDAC6, and HDAC8

Compound: Cc1ncsc1-c1ccc(CNC(=O)[C@@H]2C[C@@H](O)CN2C(=O)C(NC(=O)C2(F)CC2)C(C)(C)C)c(OCCCCCN(CCc2c[nH]c3ccccc23)Cc2ccc(/C=C/C(=O)NO)cc2)c1 (some centres unmarked) [XY-07-187]
Induced ubiquitinated HDAC substrates versus DMSO [8]: HDAC1, HDAC2, HDAC6, and HDAC8

Compound: CC(C)C[C@H](NC(=O)[C@H](CCc1ccccc1)NC(=O)CN1CCOCC1)C(=O)N[C@@H](Cc1ccccc1)C(=O)N[C@@H](CC(C)C)C(=O)[C@@]1(C)CO1 [carfilzomib]
Rescue of CC-885-induced GSPT1 degradation [9]: partially rescued

Compound: Cc1sc2c(c1C)C(c1ccc(Cl)cc1)=N[C@@H](CC(=O)NCCCCCCCCNC(=O)COc1cccc3c1C(=O)N(C1CCC(=O)NC1=O)C3=O)c1nnc(C)n1-2 (some centres unmarked) [dBET6]
Induced ubiquitinated substrates versus DMSO [2]: BRD2, BRD3, BRD4 | pIC50 [10]: ~8.00

Mono- and poly-ubiquitinated V5-IKZF1 captured by streptavidin beads [11]: increased amount | Ubiquitinated V5-IKZF1 captured by streptavidin beads compared with DMSO [11]: approximately 3.9 fold
Compound: Nc1cccc2c1C(=O)N(C1CCC(=O)NC1=O)C2=O (centres unmarked) [pomalidomide]
Induced ubiquitination of IKZF1 by E3 ligase CRBN [11]: showed pomalidomide-induced ubiquitination of IKZF1

Compound: GLNDIFEAQKIE [A3-Tag]
Km [12]: 345 µM | Increase in Km relative to Avi-Tag [13]: ~14 fold

Compound: GLNDIFEAQKIEWHE [Avi-Tag]
Km [12]: 25 µM
